Source: PubChem BioAssay AID463223 (The Scripps Research Institute Molecular Screening Center, 2010)
Calls of active or inactive are those of the source. How the calls were made is not given here.

Target: Serine/threonine-protein phosphatase 5 (Homo sapiens) (UniProt P53041)
Experiment: PP5 inhibitors on phosphohistone substrate, late-stage follow-up, PP5 inhibitor project, biochemical, radiolabel, single concentration (AID 463223)
Conditions: purified PP5c, 33P-phosphohistone radiolabel assay, scintillation counting, 10 min; at 10 µM; active compounds read high

Sequence of Serine/threonine-protein phosphatase 5 (Homo sapiens) (P53041 whole entry, looked up): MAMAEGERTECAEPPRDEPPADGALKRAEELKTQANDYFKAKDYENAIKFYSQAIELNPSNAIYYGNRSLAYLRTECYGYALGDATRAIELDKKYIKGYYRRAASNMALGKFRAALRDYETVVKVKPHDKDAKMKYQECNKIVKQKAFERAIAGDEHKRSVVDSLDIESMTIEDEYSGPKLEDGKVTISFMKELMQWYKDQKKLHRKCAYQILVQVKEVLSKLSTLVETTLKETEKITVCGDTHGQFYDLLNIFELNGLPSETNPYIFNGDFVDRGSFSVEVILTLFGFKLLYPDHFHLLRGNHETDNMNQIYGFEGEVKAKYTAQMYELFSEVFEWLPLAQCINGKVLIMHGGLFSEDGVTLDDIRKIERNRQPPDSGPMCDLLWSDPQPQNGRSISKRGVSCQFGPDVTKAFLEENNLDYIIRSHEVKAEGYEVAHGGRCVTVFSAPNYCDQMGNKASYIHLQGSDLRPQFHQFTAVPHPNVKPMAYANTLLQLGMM

SMILES | inhibition
N#Cc1c(-c2ccc(Cl)cc2)cc(-c2cccs2)nc1SCC(=O)O | 12.1% (inactive)
O=C(O)c1n[nH]nc1-c1ccccc1 | 31.1%
CCOC(=O)c1cnc(-n2cc(C)cn2)nc1NCc1ccc2c(c1)OCO2 | -0.82% (inactive)
Cc1ccc(C(=O)NNc2cc(N3CCCC3)nc(N3CCCC3)n2)cc1 | 0.83% (inactive)
CN1CCN(C(c2ccccn2)c2cc(Cl)c3cccnc3c2O)CC1 (centres undefined) | -2.91% (inactive)
COc1cnc(-c2ccccn2)nc1Sc1cccc(Cl)c1 | -0.66% (inactive)
COc1ccc2c(Cl)c(C(=O)N/N=C/c3ccc4c(c3)OCO4)sc2c1 | -0.4% (inactive)
COc1ccc(NC(=S)Nc2ccc3nsnc3c2)cc1 | -2.27% (inactive)
O=C(O)c1cc(-c2ccc(Cl)cc2)n(-c2cccc(Cl)c2)n1 | 2.43% (inactive)
COc1cnc(-c2ccccn2)nc1Sc1ccc(C)cc1 | -1.26% (inactive)
COc1ccc(Cn2c(N)c(C(=O)NCc3ccco3)c3nc4ccccc4nc32)cc1OC | 0.41% (inactive)
Cc1[nH]n(-c2ccccc2)c(=O)c1C(c1ccc([N+](=O)[O-])cc1)c1c(C)[nH]n(-c2ccccc2)c1=O | 3.51% (inactive)
Cc1ccc(C(=O)NC2(O)C(=O)c3ccccc3C2=O)cc1C | 2.14% (inactive)
CCn1c2ccccc2c2cc(NC(=O)COC(=O)c3ccc(NC(=O)CC#N)cc3)ccc21 | -0.66% (inactive)
O=C(NC1(O)C(=O)c2ccccc2C1=O)c1ccc(C(F)(F)F)cc1 | -0.52% (inactive)
COc1cc(Br)c(C(=O)c2nccc3cc(OC)c(OC)cc23)cc1OC | 1.9% (inactive)
COc1ccc(OCCCC(=O)Nc2nc(-c3ccccn3)cs2)cc1 | -1.62% (inactive)
c1ccc(-c2nccc(-c3ccc(-n4cnc5ccccc54)cc3)n2)nc1 | 9.23% (inactive)
CCOC(=O)c1sc2nc3c(SCC(=O)O)cc(C(=O)c4cc(F)ccc4O)cn3c(=O)c2c1C | 14.5% (inactive)
Oc1ccc(/C=N/Nc2cc(N3CCOCC3)nc(N3CCOCC3)n2)c(O)c1 | 0.87% (inactive)
O=C(O)C1C2CCC(O2)C1C(=O)NC1CCCCC1 (centres undefined) | 45.9%
COc1cnc(-c2ccccn2)nc1Oc1cccc(C(F)(F)F)c1 | -2.17% (inactive)

SMILES | inhibition
CCCCn1c(NC(=O)c2ccco2)c(C(=O)OCC)c2nc3ccccc3nc21 | 2.8% (inactive)
CC(C)(CS(=O)(=O)[O-])NC(=O)CC[N+](C)(C)CCO | 2.71% (inactive)
O=C(NC1(O)C(=O)c2ccccc2C1=O)c1ccccc1 | 1.84% (inactive)
O=C(NC1(O)C(=O)c2ccccc2C1=O)c1c(Cl)cccc1Cl | -1.34% (inactive)
O=C1Nc2ccccc2N2CCCC12 (centres undefined) | -0.58% (inactive)
COc1ccc(CN2C(=O)Cc3c2nc(N)c2c(N)nc(N4CCCCC4)c(C#N)c32)cc1 | -2.57% (inactive)
CCOc1ccc(NC(=S)Nc2ccc3nsnc3c2)cc1 | -0.34% (inactive)
COc1ccc(Sc2nc(-c3ccccn3)ncc2OC)cc1 | 1.12% (inactive)
O=C1CCCC2=C1C1(O)C(=O)c3ccccc3C1(O)O2 (centres undefined) | 4.95% (inactive)
CCOC(=O)c1sc(N2C(=O)C(O)=C(C(=O)c3ccco3)C2c2cccc([N+](=O)[O-])c2)nc1C (centres undefined) | 9.04% (inactive)
COc1ccc(C(=O)c2nccc3cc(OC)c(OC)cc23)cc1OC | 1.93% (inactive)
O=C(Nc1nc(-c2ccccn2)cs1)C1CC(=O)N(c2ccc3c(c2)OCCO3)C1 (centres undefined) | -3.02% (inactive)
CCOC(=O)c1nn(-c2ccc(C)cc2)c(=O)c2c(N)scc12 | 0.85% (inactive)
Nc1cc2nsnc2cc1Br | 1.86% (inactive)
Oc1ccccc1/C=N/Nc1cc(N2CCCC2)nc(N2CCCC2)n1 | 3.34% (inactive)
COc1ccc(Cl)cc1C(=O)Nc1cccc(-c2ccc3nncn3n2)c1 | -1.12% (inactive)
CCCN(CC1CC1)c1nc(N)c2c(N)nc(OC)cc2c1C#N | 0.96% (inactive)
COc1cnc(-c2ccccn2)nc1Oc1cccc(Cl)c1 | -1.35% (inactive)
Oc1cccc(/C=N/Nc2cc(N3CCCC3)nc(N3CCCC3)n2)c1 | 1.73% (inactive)
Cc1ccc(-n2nc(C(=O)O)cc2-c2ccc(Cl)cc2)cc1 | 1.91% (inactive)
Nc1nc(-c2ccccn2)nc(N)c1Cc1ccc(Cl)cc1Cl | -1.92% (inactive)
CCOC(=O)c1cnc(-n2nc(C)cc2C)nc1NCc1ccccc1 | 3.11% (inactive)

SMILES | inhibition
COc1ccccc1Sc1nc(-c2ccccn2)ncc1OC | -2.42% (inactive)
CCCCN(CC)c1nc(N)c2c(N)nc(OCC)cc2c1C#N | 2.68% (inactive)
N#Cc1c(N2CCCC(O)C2)nc(N)c2c(N)nc3c(c12)CC(=O)N3C12CC3CC(CC(C3)C1)C2 (centres undefined) | -0.93% (inactive)
COc1ccc(NC(=O)C2C3CCC(O3)C2C(=O)O)c(OC)c1 (centres undefined) | 49.1%
COc1cnc(-c2ccccn2)nc1Sc1ccc(Cl)cc1 | -3.05% (inactive)
CCOC(=O)c1cnc(-n2nc(C)cc2C)nc1NC1CCCCC1 | 1.15% (inactive)
CC(=O)C(C(C)=O)C1(O)C(=O)c2ccccc2C1=O | 2.52% (inactive)
c1ccc(Nc2nc(-c3ccccn3)cs2)cc1 | -1.08% (inactive)
CCOC(=O)c1cnc(-n2nc(C)cc2C)nc1NCCc1ccccc1 | 0.06% (inactive)
O=c1[nH]c(Nc2ccccc2)cc2ccccc12 | 0.47% (inactive)
COc1cnc(-c2ccccn2)nc1Sc1ccccc1Cl | 0.33% (inactive)
Cc1nnc(NC(=O)C2C3C=CC(O3)C2C(=O)O)s1 (centres undefined) | 16%
COc1cnc(-c2ccccn2)nc1Sc1ccccc1 | -1.46% (inactive)
CCOC(=O)C1=C(C)OC2(O)c3ccccc3C(=O)C12O (centres undefined) | -1.47% (inactive)
CCOC(=O)c1cnc(-n2nc(C)cc2C)nc1NC(C)c1ccccc1 (centres undefined) | 0.17% (inactive)
O=C(O)c1cc(-c2ccc(Cl)c(Cl)c2)n(-c2ccccc2)n1 | 0.56% (inactive)
O=S(=O)(Cc1cc(NCc2ccccc2)nc(-c2ccccn2)n1)c1ccccc1 | 8.88% (inactive)
Clc1ccc(-n2nnnc2-c2cnc(-c3ccccn3)nc2-c2cccs2)cc1 | -0.04% (inactive)
O=C(O)c1cc(-c2ccc(Cl)c(Cl)c2)n(-c2ccc(F)cc2)n1 | -0.91% (inactive)
COc1cnc(-c2ccccn2)nc1Sc1ccc(F)cc1 | -3.12% (inactive)
